# Test results reported in patent US10849918B2, “Composition for optic nerve protection” (TOHOKU TECHNO ARCH CO., LTD., priority 2015, dated 2020).
# Test system: retinal ganglion cells
# Assay: Test 2: optic nerve protection in optic nerve crush injury murine model, oral administration
# Type: in vivo, mice
# Details: summary statement; oral or intraocular administration, optic nerve crush injury model and NMDA model
# Procedure: The nerve protection effect of each ingredient was verified by using a rodent glaucoma pathological model of an optic nerve crush injury murine model.
# Test animal: male C57BL/6 strain mice, 9-12 weeks old, each approximately 25 g
# The experiment was conducted according to the following method. The number of samples in each group was 8.
# (2) To the mice in the experimental groups, each ingredient prepared as shown in Table 2 was orally administered at a dosage as shown in Table 2 once a day from one week before the optic nerve crush treatment; to the mice in the control groups, 100 μL of distilled water or phosphate-buffered saline (containing no Ca or Mg, pH: 7.4, hereinafter abbreviated as “PBS(−)”) was administered likewise.
# (3) The optic nerve crush treatment on the mice was performed under anesthesia by administering ketamine (100 mg/kg) and xylazine (5 mg/kg). The optic nerve crush treatment was performed on only single eyes, and the fellow eyes were untreated. After the optic nerve crush treatment was completed, an antibacterial ophthalmic ointment was instilled to the eyes of the mice. […]
# (7) The number of cells labeled with Fluoro-Gold was counted to obtain an average number at the 12 sites. […]
smiles,measurement,value
COc1ccc([C@@H]2CC(=O)c3c(O)cc(O[C@@H]4O[C@H](CO[C@@H]5O[C@@H](C)[C@H](O)[C@@H](O)[C@H]5O)[C@@H](O)[C@H](O)[C@H]4O)cc3O2)cc1O [hesperidin],protection effect on the death of retinal ganglion cells,excellent protection effect on the death of retinal ganglion cells
